Here are results for four compounds from PubChem BioAssay AID651729 (NMMLSC, 2012).

Structures are written as SMILES.

The test system of the assay is AM2.2 cells FAP-GPR32, fluorogen binding, flow cytometry MCF. The assay is described as follows: interference with FAP fluorogen signal – AM2.2 cells, flow cytometry, powder set 2, counter-screen for beta2AR agonist internalization project, dose response (AID 651729).
What is called EC50 is the concentration giving half of the maximal effect. `CN(CC(=O)N1CCN(c2ccccn2)CC1)S(=O)(=O)c1ccc(Cl)cc1`: the EC50 was 5.23 nM.
Then `CC(=O)Nc1ccc(S(=O)(=O)NCCc2csc(-c3cccnc3)n2)cc1`, with 11 nM.
Then `CCOC(=O)c1ccc(NC(=O)COc2ccc(S(=O)(=O)N3CCCC3)cc2)cc1`, with 124 nM; and `CCOC(=O)c1ccc(NC(=O)Cn2nnc(-c3ccccc3)n2)cc1`, with 134 nM.
